Experimental data as given in patent US9193725B2, “Cyclic hydrazine derivatives as HIV attachment inhibitors” (priority 2012, dated 2015).
Where two headings read alike, the source gives them in different places.

System: HIV-1 LAI envelope single-round infectious reporter virus
Test: Single-round infectious luciferase reporter virus (HIV-1 LAI envelope) infection of MT2 cells
Format: cell-based
Settings: Human immunodeficiency virus 1, MT2, 72 h
Text: • Virus production—Human embryonic Kidney cell line, 293T (HEK 293T), was propagated in Dulbecco's Modified Eagle Medium (Invitrogen, Carlsbad, Calif.) containing 10% fetal bovine serum (FBS, Sigma, St. Louis, Mo.). The human T-cell leukemia cell MT2 (AIDS Research and Reference Reagent Program, Cat. 237) was propagated in RPMI 1640 (Invitrogen, Carlsbad, Calif.) containing 10% fetal bovine serum (FBS, Hyclone, Logan, Utah) • Virus infection—Single-round infectious reporter virus was produced by co-transfecting HEK 293T cells with plasmide expressing the HIV-1 LAI envelope along with a plasmid containing an HIV-1 LAI proviral cDNA with the envelope gene replaced by a firefly luciferase reporter gene (Chen et al., Ref 41). Transfections were performed using lipofectAMINE PLUS reagent as described by the manufacturer (Invitrogen, Carlsbad, Calif.). Experimental Procedure • 1. MT2 cells were plated in black, 384 well plates at a cell density of 5×10^3 cells per well in 25 μl RPMI 1640 containing 10% FBS. • 2. Compound (diluted in dimethylsulfoxide and growth medium) was added to cells at 12.5 μl/well, so that the final assay concentration would be ≦50 nM. • 3. 12.5 μl of single-round infectious reporter virus in Dulbecco's Modified Eagle Medium was added to the plated cells and compound at an approximate multiplicity of infection (MOI) of 0.01, resulting in a final volume of 50 μl per well. • 4. Virus-infected cells were incubated at 37 degrees Celsius in a CO2 incubator and harvested 72 h after infection. • 5. Viral infection was monitored by measuring luciferase expression in the infected cells using a luciferase reporter gene assay kit (Steady-Glo, Promega, Madison, Wis.) as described by the manufacturer. Luciferase activity was then quantified by measuring luminescence using an EnVision Multilabel Plate Readers (PerkinElmer, Waltham, Mass.). • 6. The percent inhibition for each compound was calculated by quantifying the level of luciferase expression in cells infected in the presence of each compound as a percentage of that observed for cells infected in the absence of compound and subtracting such a determined value from 100. • 7. An EC50 provides a method for comparing the antiviral potency of the compounds of this disclosure. The effective concentration for fifty percent inhibition (EC50) was calculated with the Microsoft Excel Xlfit curve fitting software. For each compound, curves were generated from percent inhibition calculated at 10 different concentrations by using a four parameter logistic model (model 205). Table 1 is the key for the data in Table 2.

[1] = read-out: EC50 Group from Table 1

Row | SMILES | EC50 | EC50 [1]
1 | COc1cnc(-n2cnc(C)n2)c2[nH]cc(C(=O)C(=O)N3CC/C(=C(/C#N)c4ccccc4)CN3C)c12 [Compound 1006, (Z)-2-(1-(2-(4-methoxy-7-(3-methyl-1H-1,2,4-triazol-1-yl)-1H-pyrrolo[2,3-c]pyridin-3-yl)-2-oxoacetyl)-2-methylpiperazin-4-ylidene)-2-phenylacetonitrile] | 456 nM | < 500 nM
2 | COc1cnc(-n2cnc(C)n2)c2[nH]cc(C(=O)C(=O)N3CCc4c(ncnc4-c4ccccc4)N3)c12 [Compound 2004, 1-(4-methoxy-7-(3-methyl-1H-1,2,4-triazol-1-yl)-1H-pyrrolo[2,3-c]pyridin-3-yl)-2-(5-phenyl-3,4-dihydropyrimido[4,5-c]pyridazin-2(1H)-yl)ethane-1,2-dione] |  | < 500 nM
3 | COc1cnc(-n2cnc(C)n2)c2[nH]cc(C(=O)C(=O)N3CCc4c(-c5ccccn5)ncnc4N3C)c12 [Compound 2002, 1-(4-methoxy-7-(3-methyl-1H-1,2,4-triazol-1-yl)-1H-pyrrolo[2,3-c]pyridin-3-yl)-2-(1-methyl-5-(pyridin-2-yl)-3,4-dihydropyrimido[4,5-c]pyridazin-2(1H)-yl)ethane-1,2-dione] |  | < 500 nM
4 | N#C/C(=C1\CCN(C(=O)C(=O)c2c[nH]c3c(-n4ccnn4)ncc(F)c23)NC1)c1ccccc1 [Compound 1001] |  | < 500 nM
5 | COc1cnc(-n2cnc(C)n2)c2[nH]cc(C(=O)C(=O)N3CC/C(=C(\C#N)c4ccccc4)CN3)c12 [Compound 1002] | 0.29 nM | < 500 nM
6 | COc1cnc(-n2cnc(C)n2)c2[nH]cc(C(=O)C(=O)N3CCc4c(-c5ccccc5)ncnc4N3C)c12 [Compound 2001, 1-(4-methoxy-7-(3-methyl-1H-1,2,4-triazol-1-yl)-1H-pyrrolo[2,3-c]pyridin-3-yl)-2-(1-methyl-5-phenyl-3,4-dihydropyrimido[4,5-c]pyridazin-2(1H)-yl)ethane-1,2-dione] |  | < 500 nM
7 | COc1cnc(-n2cnc(C)n2)c2[nH]cc(C(=O)C(=O)N3C(C)Cc4c(-c5ccccc5)ncnc4N3C)c12 (stereo not drawn) [Compound 2003, 1-(1,3-dimethyl-5-phenyl-3,4-dihydropyrimido[4,5-c]pyridazin-2(1H)-yl)-2-(4-methoxy-7-(3-methyl-1H-1,2,4-triazol-1-yl)-1H-pyrrolo[2,3-c]pyridin-3-yl)ethane-1,2-dione] |  | < 500 nM
